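Where inhibition never reached the appropriate level, the endpoint shown equals the highest concentration tested. Otherwise, values were interpolated linearly from a five-concentration, 48-hour dose response in 96-well plates. GI50 = concentration required for 50% inhibition of growth.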 The source made the active and inactive calls. No stated cut-off is given here; in the data, active = GI50 up to about 1.1 µM and inactive = higher.
Experiments:
Assay in all cases: DTP human tumour cell line panel, 48 h
[1] = tested on: KM-20L2
[2] = tested on: DMS-114
[3] = tested on: DLD-1
[4] = tested on: XF498
[5] = tested on: M19-MEL
[6] = tested on: SNB-78
[7] = tested on: HOP-18
[8] = tested on: LXFL 529
[9] = tested on: RXF 631

Measured: GI50

CC(=O)CNC(=O)OC(C)(C)C
inactive: [1] > 100 µM | [2] > 100 µM | [3] > 100 µM | [4] > 100 µM | [5] > 100 µM | [6] > 100 µM

O=C1Nc2ccccc2C12CCNC2Cc1ccccc1 (stereo not drawn)
inactive: [1] > 100 µM | [7] 78.3 µM | [2] > 100 µM | [8] > 100 µM | [3] > 100 µM | [4] > 100 µM | [5] > 100 µM

C#CN1C(=O)c2c(c(-c3ccccc3)c(-c3ccc(Oc4ccc(-c5c(-c6ccccc6)c6c(c(-c7ccccc7)c5-c5ccccc5)C(=O)N(C#C)C6=O)cc4)cc3)c(-c3ccccc3)c2-c2ccccc2)C1=O
inactive: [1] > 100 µM | [2] > 100 µM | [3] > 100 µM | [4] 23.2 µM | [5] > 100 µM

CN(C)C(=S)Nc1nnc(Nc2ccccc2)s1
inactive: [1] > 100 µM | [7] > 100 µM | [8] > 100 µM | [3] > 100 µM | [5] > 100 µM | [6] > 100 µM | [9] > 100 µM

Clc1cccc(-c2nnc(-c3nn(-c4ccccc4)c4nc5ccccc5nc34)o2)c1
inactive: [1] > 100 µM | [7] > 100 µM | [2] > 100 µM | [8] 78.9 µM | [3] > 100 µM | [4] 43.8 µM | [5] > 100 µM | [6] > 100 µM

COc1ccc(/C(=N\NC(=N)N)C(c2ccc(OC)cc2)C2OC(=O)c3ccccc32)cc1 (stereo not drawn)
inactive: [1] > 100 µM | [2] > 100 µM | [8] > 100 µM | [3] > 100 µM | [4] > 100 µM | [5] > 100 µM | [6] > 100 µM | [9] > 100 µM

O=C1c2ccccc2C(=O)N1C/C=N/NS(=O)(=O)c1cccc([N+](=O)[O-])c1
inactive: [1] > 100 µM | [2] > 100 µM | [8] > 100 µM | [3] > 100 µM | [4] > 100 µM | [5] > 100 µM

CC1(C)CC(=O)C2=C(C1)S/C(=C1/SC3=C(S1)C(=O)CC(C)(C)C3)S2
inactive: [1] > 251 µM | [7] > 251 µM | [2] > 251 µM | [8] > 251 µM | [3] > 251 µM | [4] > 251 µM | [5] > 251 µM | [6] > 251 µM

CCOc1ccc(N2C(=O)/C(=C/c3ccc(N(CCC#N)CCC#N)cc3)N=C2c2cc([N+](=O)[O-])ccc2Cl)cc1
inactive: [7] > 100 µM | [2] 33.9 µM | [8] 30 µM | [3] 32.2 µM | [5] 24.2 µM | [6] > 100 µM | [9] 39.6 µM

O=C(/C=C/c1ccc(OCCCCCCCCCCOc2ccc(/C=C/C(=O)c3ccc(Cl)cc3)cc2)cc1)c1ccc(Cl)cc1
inactive: [1] > 100 µM | [7] > 100 µM | [2] > 100 µM | [3] > 100 µM | [6] > 100 µM | [9] > 100 µM

O=C(COc1ccc2c(=O)cc(-c3ccc(Cl)cc3)oc2c1)N1CCN(c2ccccc2)CC1
inactive: [1] > 100 µM | [8] 11.9 µM | [3] > 100 µM | [4] > 100 µM | [5] > 100 µM | [6] 5.11 µM | [9] 6.58 µM

CC(=O)/C=C/c1cccc(N=S)c1
inactive: [1] 13.8 µM | [7] 50 µM | [2] 23 µM | [8] 5.78 µM | [3] 4.88 µM | [4] > 100 µM | [5] 6.25 µM | [6] 32.8 µM | [9] 39 µM

COC(=O)/C=C/c1cc(OC)c(OC)c(OC)c1
inactive: [1] > 100 µM | [7] > 100 µM | [2] > 100 µM | [8] > 100 µM | [3] > 100 µM | [4] > 100 µM | [5] 93.8 µM | [9] 82.4 µM

O=C(CC(=O)c1cccc2ccccc12)C(=O)NC1C2CC3CC(C2)CC1C3 (stereo not drawn)
inactive: [1] > 100 µM | [7] 60.1 µM | [2] > 100 µM | [8] > 100 µM | [3] > 100 µM | [4] > 100 µM | [5] > 100 µM | [6] > 100 µM | [9] > 100 µM

C1OC1CO[C@@H]1CO[C@H]2[C@@H]1OC[C@H]2OCC1CO1 (stereo partly drawn)
inactive: [1] > 100 µM | [7] > 100 µM | [2] > 100 µM | [3] > 100 µM | [4] > 100 µM | [5] > 100 µM | [6] > 100 µM

COc1ccc(C2S/C(=C\c3ccc([N+](=O)[O-])cc3)C(=O)N2NC(=O)Cc2ccccc2)cc1 (stereo not drawn)
inactive: [7] > 100 µM | [2] 45.8 µM | [8] > 100 µM | [3] > 100 µM | [5] > 100 µM

Cc1ccc(C2(O)CC(c3ccc([N+](=O)[O-])o3)=NN2C(=O)COc2ccc(Cl)cc2)cc1 (stereo not drawn)
inactive: [1] 7.18 µM | [7] 20.9 µM | [2] 9.86 µM | [8] 2.79 µM | [3] 3.23 µM | [4] 11.4 µM | [5] 3.67 µM | [6] 12.9 µM

COC(=O)C1=C(C)N(NC(N)=O)C2(N)N(NC(N)=O)C(C)=C(C(=O)OC)C12C(=O)OC (stereo not drawn)
inactive: [1] > 100 µM | [7] > 100 µM | [2] > 100 µM | [8] > 100 µM | [3] > 100 µM | [4] > 100 µM | [5] > 100 µM | [6] > 100 µM | [9] > 100 µM

CCCCCCCCCCCC(=O)OC[C@@H](C[As](=O)(O)O)OC(=O)CCCCCCCCCCC
inactive: [1] 13.4 µM | [7] 14.5 µM | [2] 2.12 µM | [8] 5.45 µM | [3] 18 µM | [4] 14.2 µM | [5] 6.05 µM | [6] 3.39 µM

O=C1c2ccccc2C(=O)c2nc(-c3ccccc3)c(-c3ccccc3)nc21
active: [5] 0.427 µM
inactive: [1] 50.5 µM | [7] 26.7 µM | [2] 1.21 µM | [8] > 100 µM | [3] > 100 µM | [4] 14.4 µM | [6] > 100 µM | [9] 33.4 µM

Nc1nc2ncn(CC(O)CO)c2c(=S)[nH]1 (stereo not drawn)
inactive: [1] > 100 µM | [7] > 100 µM | [2] > 100 µM | [8] > 100 µM | [3] > 100 µM | [4] 23.4 µM | [5] > 100 µM | [6] > 100 µM | [9] > 100 µM

CCC/C(=N\NC(=S)N1CCN(c2ccccn2)CC1)c1ccccn1
active: [1] < 0.001 µM | [7] 0.00887 µM | [2] < 0.001 µM | [8] < 0.001 µM | [3] < 0.001 µM | [4] < 0.001 µM | [5] 0.0366 µM | [6] 0.583 µM | [9] 0.133 µM

COc1ccc(-c2nc3c(nc2-c2ccc(OC)cc2)C(N)=NS(=O)(=O)N3)cc1
inactive: [2] > 100 µM | [3] > 100 µM | [5] > 100 µM | [9] > 100 µM

O=C1N[C@@H](O)[C@@H]2ON=C(c3ccccc3)[C@H]12
inactive: [1] > 100 µM | [7] > 100 µM | [2] > 100 µM | [8] > 100 µM | [3] > 100 µM | [4] > 100 µM | [5] > 100 µM | [9] > 100 µM

O=C(/C=C1/Nc2ccc([N+](=O)[O-])cc2NC1O)c1cccc([N+](=O)[O-])c1 (stereo not drawn)
inactive: [1] 25.4 µM | [2] 32.1 µM | [8] 19.9 µM | [3] 17.3 µM | [4] > 100 µM | [5] 58.3 µM | [6] > 100 µM

C1=CC(N(c2ccccc2)C2C=CCCC2)CCC1 (stereo not drawn)
inactive: [1] 72.6 µM | [7] > 100 µM | [2] 67.3 µM | [8] > 100 µM | [3] > 100 µM | [5] > 100 µM

c1ccc(SC23C4C5C6C4C2C6C53)nc1 (stereo not drawn)
inactive: [1] > 100 µM | [7] 4.86 µM | [2] > 100 µM | [8] > 100 µM | [3] > 100 µM | [5] > 100 µM | [6] > 100 µM | [9] > 100 µM
